Data from patent US20080131500A1, “METHODS AND COMPOSITIONS FOR RAPID INACTIVATION OF PROTEINS” (The Board of Regents of The University of Texas System, priority 2006, published 2008).
Where two headings read alike, the source gives them in different places.

Legend:
[1] = biological target: T1, hirudin (Hirudo medicinalis, UniProt P01050); experiment: Reduction of native hirudin by DTT at pH 9.0, 11.0 and 13.5, HPLC analysis; type: biochemical; conditions: for rate constant of hirudin reduction: 50 mM DTT, 22° C.
T1 sequence (P01050 whole entry, looked up): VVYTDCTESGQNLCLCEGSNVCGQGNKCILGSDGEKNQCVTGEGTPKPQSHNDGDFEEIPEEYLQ
Method: FIG. 2. […] N-Hirudin (1 mg/ml) was reduced with 50 mM DTT at 22° C. in solutions of pH 9.0, pH 11.0 and pH 13.5. The buffers of pH 9.0 and 11.0 were prepared by the titration of 0.1N NaHC03 and 0.1N NaOH. The samples were quenched at different time points by acidification and analyzed by HPLC using the following conditions. Solvent A for HPLC was water containing 0.1% trifluoroacetic acid. Solvent B was acetonitrile/water (9:1, by volume) containing 0.086% trifluoroacetic acid. The gradient was 27% to 36% solvent B linear in 25 min. The flow rate was 0.5 ml/min. The column was Zorbax 300SB C-18 for peptides and proteins, 4.6 mm, 5 pm. Column temperature was 22° C. N indicates native hirudin.
Reduction of protein disulfide bonds by a reducing agent (such as β-mercaptoethanol, dithiothreitol or tris-carboxyethyl-phosphine) is typically performed at pH 8.0-8.5. […] Hirudin (a 3-disulfide protein) is used as an example here. Native hirudin was incubated with 20 mM, 50 mM or 100 mM of DTT at 22° C. in solutions of pH 9.0, 11.0 and 13.5 respectively. […] Thus, increase of pH from 9.0 to 13.5 accelerates the rate of reduction of hirudin at room temperature by approximately 30-fold. Similar effect of pH was also observed at DTT concentrations of 20 mM and 100 mM.

[2] = biological target: T1, hirudin; experiment: Reduction of native hirudin in 1N NaOH, 50 mM DTT with added denaturant (GdnCl or GdnSCN), HPLC analysis; type: biochemical
Method: FIG. 3. […] N indicates native hirudin.
Denaturant is known to destabilize the conformation of native protein and decrease the covalent stability of disulfide bonds against reduction. In addition to the optimized pH (13.5) for hirudin reduction described above, denaturant (GdnCl and GdnSCN) was included to further accelerate the rate of reduction. Native hirudin (N) was incubated at 22° C. in solutions comprising 1N NaOH, 50 mM DTT and increasing concentrations of GdnCl (0.2M-2M) or GdnSCN (0.1M-I M). […] In the presence of 1M of GdnSCN, the reduction of hirudin completes within one minute.

[3] = cited from earlier work

In the case of `O[C@H](CS)[C@H](O)CS` (racemic) [DTT, dithiothreitol], the “rate constant of hirudin reduction” value ([1]; pH 9.0) is reported as 0.00377 min⁻¹, the “rate constant of hirudin reduction” value ([1]; pH 11.0) is reported as 0.0235 min⁻¹ and the “acceleration of the rate of reduction of hirudin” value ([1]; increase of pH from 9.0 to 13.5, room temperature) is reported as “approximately 30 fold”.
With `Cl.N=C(N)N` [GdnCl, guanidinium chloride] the “potency of 6M GdnCl relative to 1M GdnSCN” value ([2]; 6M GdnCl versus 1M GdnSCN) was “about 3 fold” and the “potency relative to GdnSCN” value ([2]; acceleration of hirudin reduction in 1N NaOH, 50 mM DTT) was “approximately 50%”.
With `N#CS.N=C(N)N` [GdnSCN, guanidine thiocyanate] the “time to complete reduction of hirudin” value ([2]; 1M GdnSCN in 1N NaOH, 50 mM DTT, 22° C.) was “one”, the “further acceleration of the reduction of hirudin” value ([2]; inclusion of 0.2M GdnSCN in 1N NaOH, 50 mM DTT, 22° C.) was 2.5 fold and the “further acceleration of the reduction of hirudin” value ([2]; inclusion of 0.5M GdnSCN in 1N NaOH, 50 mM DTT, 22° C.) was 5 fold.
For hirudin, the “hirudin in a denatured state” value ([3]; 6 M GdnCl) is listed as 67% and the “hirudin in a denatured state” value ([3]; 8 M urea) is listed as 14%.
